Experimental data reported in publication PMC6100082, “Pyridine-Ureas as Potential Anticancer Agents: Synthesis and In Vitro Biological Evaluation” (Molecules : A Journal of Synthetic Chemistry and Natural …, 2018).

Columns and labels:
CCRF-CEM = test: NCI one-dose SRB assay (Leukemia); format: cell-based, human; settings: for Growth Percent: 1.00E-5 Molar; for inhibition at 10 µM: Homo sapiens, read-out: Percentage growth inhibition (GI%)
Description: (§1) The structures of all the newly prepared pyridine-ureas 8a–n were submitted to the National Cancer Institute (NCI) Developmental Therapeutic Program. Eight compounds 8b, 8d, 8e, 8i, 8j and 8l–n were selected to be examined for their in vitro growth inhibitory activity. The anticancer assays were carried out according to the protocol of the Drug Evaluation Branch, NCI, Bethesda. The selected pyridine-ureas were tested at one dose primary anticancer assay against a panel of approximately 58 cancer lines (concentration 10^−5 M). The tested human cancer cell lines emerged from nine different cancer subtypes: leukemia, colon, melanoma, ovarian, lung, CNS, renal, breast and prostate cancers. The sulforhodamine B (SRB) protein assay was adopted to estimate the cell viability and growth. The results were reported as mean-graph of the percentage growth of the treated cells, and presented as percentage growth inhibition (GI%) caused by the test compounds (Table 2).
(§2) The anticancer assays were performed in accordance with the protocol of the Drug Evaluation Branch, NCI, Bethesda. A 48 h drug exposure protocol was used and sulforhodamine B (SRB) protein assay was applied to estimate the cell viability and growth, as reported earlier.

HL-60(TB) = test: NCI one-dose SRB assay (Leukemia); format: cell-based, human; settings: for Growth Percent: 1.00E-5 Molar; for inhibition at 10 µM: Homo sapiens, read-out: Percentage growth inhibition (GI%)
Description: as §1, §2

K-562 = test: NCI one-dose SRB assay (Leukemia); format: cell-based, human; settings: for inhibition at 10 µM: Homo sapiens, K562, K-562, 10 μM, read-out: Percentage growth inhibition (GI%); for Growth Percent: K-562, 1.00E-5 Molar
Description: as §1, §2

MOLT-4 = test: NCI one-dose SRB assay (Leukemia); format: cell-based, human; settings: for inhibition at 10 µM: Homo sapiens, MOLT-4, 10 μM, read-out: Percentage growth inhibition (GI%); for Growth Percent: MOLT-4, 1.00E-5 Molar
Description: as §1, §2

RPMI-8226 = test: NCI one-dose SRB assay (Leukemia); format: cell-based, human; settings: for inhibition at 10 µM: Homo sapiens, RPMI-8226, 10 μM, read-out: Percentage growth inhibition (GI%); for Growth Percent: RPMI-8226, 1.00E-5 Molar
Description: as §1, §2

SR = test: NCI one-dose SRB assay (Leukemia); format: cell-based, human; settings: for Growth Percent: 1.00E-5 Molar; for inhibition at 10 µM: Homo sapiens, read-out: Percentage growth inhibition (GI%)
Description: as §1, §2

A549/ATCC = test: NCI one-dose SRB assay (Non-Small Cell Lung Cancer); format: cell-based, human; settings: for Growth Percent: 1.00E-5 Molar; for inhibition at 10 µM: Homo sapiens, read-out: Percentage growth inhibition (GI%)
Description: as §1, §2

EKVX = test: as above; format: cell-based, human; settings: for Growth Percent: 1.00E-5 Molar; for inhibition at 10 µM: Homo sapiens, read-out: Percentage growth inhibition (GI%)
Description: as §1, §2

HOP-62 = test: as above; format: cell-based, human; settings: for Growth Percent: HOP-62, 1.00E-5 Molar; for inhibition at 10 µM: Homo sapiens, HOP-62, 10 μM, read-out: Percentage growth inhibition (GI%)
Description: as §1, §2

HOP-92 = test: as above; format: cell-based, human; settings: for Growth Percent: HOP-92, 1.00E-5 Molar; for inhibition at 10 µM: Homo sapiens, HOP-92, 10 μM, read-out: Percentage growth inhibition (GI%)
Description: as §1, §2

NCI-H226 = test: as above; format: cell-based, human; settings: for inhibition at 10 µM: Homo sapiens, NCI-H226, 10 μM, read-out: Percentage growth inhibition (GI%); for Growth Percent: NCI-H226, 1.00E-5 Molar
Description: as §1, §2

NCI-H23 = test: as above; format: cell-based, human; settings: for inhibition at 10 µM: Homo sapiens, NCI-H23, 10 μM, read-out: Percentage growth inhibition (GI%); for Growth Percent: NCI-H23, 1.00E-5 Molar
Description: as §1, §2

NCI-H322M = test: as above; format: cell-based, human; settings: for Growth Percent: 1.00E-5 Molar; for inhibition at 10 µM: Homo sapiens, read-out: Percentage growth inhibition (GI%)
Description: as §1, §2

NCI-H460 = test: as above; format: cell-based, human; settings: for inhibition at 10 µM: Homo sapiens, NCI-H460, 10 μM, read-out: Percentage growth inhibition (GI%); for Growth Percent: NCI-H460, 1.00E-5 Molar
Description: as §1, §2

NCI-H522 = test: as above; format: cell-based, human; settings: for inhibition at 10 µM: Homo sapiens, NCI-H522, 10 μM, read-out: Percentage growth inhibition (GI%); for Growth Percent: NCI-H522, 1.00E-5 Molar
Description: as §1, §2

LOX IMVI = test: NCI one-dose SRB assay (Melanoma); format: cell-based, human; settings: for Growth Percent: 1.00E-5 Molar; for inhibition at 10 µM: Homo sapiens, read-out: Percentage growth inhibition (GI%)
Description: as §1, §2

M14 = test: NCI one-dose SRB assay (Melanoma); format: cell-based, human; settings: for inhibition at 10 µM: Homo sapiens, M14, 10 μM, read-out: Percentage growth inhibition (GI%); for Growth Percent: M14, 1.00E-5 Molar
Description: as §1, §2

MALME-3M = test: NCI one-dose SRB assay (Melanoma); format: cell-based, human; settings: for Growth Percent: 1.00E-5 Molar; for inhibition at 10 µM: Homo sapiens, read-out: Percentage growth inhibition (GI%)
Description: as §1, §2

MDA-MB-435 = test: NCI one-dose SRB assay (Melanoma); format: cell-based, human; settings: for inhibition at 10 µM: Homo sapiens, MDA-MB-435, 10 μM, read-out: Percentage growth inhibition (GI%); for Growth Percent: MDA-MB-435, 1.00E-5 Molar
Description: as §1, §2

SK-MEL-28 = test: NCI one-dose SRB assay (Melanoma); format: cell-based, human; settings: for inhibition at 10 µM: Homo sapiens, SK-MEL-28, 10 μM, read-out: Percentage growth inhibition (GI%); for Growth Percent: SK-MEL-28, 1.00E-5 Molar
Description: as §1, §2

SK-MEL-2 = test: NCI one-dose SRB assay (Melanoma); format: cell-based, human; settings: for inhibition at 10 µM: Homo sapiens, SK-MEL-2, 10 μM, read-out: Percentage growth inhibition (GI%); for Growth Percent: SK-MEL-2, 1.00E-5 Molar
Description: as §1, §2

SK-MEL-5 = test: NCI one-dose SRB assay (Melanoma); format: cell-based, human; settings: for inhibition at 10 µM: Homo sapiens, SK-MEL-5, 10 μM, read-out: Percentage growth inhibition (GI%); for Growth Percent: SK-MEL-5, 1.00E-5 Molar
Description: as §1, §2

UACC-257 = test: NCI one-dose SRB assay (Melanoma); format: cell-based, human; settings: for inhibition at 10 µM: Homo sapiens, UACC-257, 10 μM, read-out: Percentage growth inhibition (GI%); for Growth Percent: UACC-257, 1.00E-5 Molar
Description: as §1, §2

UACC-62 = test: NCI one-dose SRB assay (Melanoma); format: cell-based, human; settings: for inhibition at 10 µM: Homo sapiens, UACC-62, 10 μM, read-out: Percentage growth inhibition (GI%); for Growth Percent: UACC-62, 1.00E-5 Molar
Description: as §1, §2

With `COc1ccc(-c2ccc(NC(=O)Nc3ccc(Cl)c(C(F)(F)F)c3)c(C)n2)cc1` [Compound 8e, 1-(4-Chloro-3-(trifluoromethyl)phenyl)-3-(6-(4-methoxyphenyl)-2-methylpyridin-3-yl)urea] the “Growth Percent” value (CCRF-CEM) was 29.88%, the inhibition at 10 µM (CCRF-CEM) was 71% and the “Growth Percent” value (HL-60(TB)) was 32.27%. The inhibition at 10 µM (HL-60(TB)) was 68%, the inhibition at 10 µM (K-562) was 84% and the “Growth Percent” value (K-562) was 16.70%. For the same compound, the inhibition at 10 µM (MOLT-4) was 76%, the “Growth Percent” value (MOLT-4) was 24.60% and the inhibition at 10 µM (RPMI-8226) was 91%. The “Growth Percent” value (RPMI-8226) was 9.87%, the “Growth Percent” value (SR) was 35.68% and the inhibition at 10 µM (SR) was 65%. The “Growth Percent” value (A549/ATCC) was 38.71%, the inhibition at 10 µM (A549/ATCC) was 62% and the “Growth Percent” value (EKVX) was 49.19%. For the same compound, the inhibition at 10 µM (EKVX) was 51%, the “Growth Percent” value (HOP-62) was 62.10% and the inhibition at 10 µM (HOP-62) was 38%. The “Growth Percent” value (HOP-92) was 27.03%, the inhibition at 10 µM (HOP-92) was 73% and the inhibition at 10 µM (NCI-H226) was 35%. The “Growth Percent” value (NCI-H226) was 65.24%, the inhibition at 10 µM (NCI-H23) was 70% and the “Growth Percent” value (NCI-H23) was 30.94%. For the same compound, the “Growth Percent” value (NCI-H322M) was 71.44%, the inhibition at 10 µM (NCI-H322M) was 29% and the inhibition at 10 µM (NCI-H460) was 70%. The “Growth Percent” value (NCI-H460) was 30.90%, the inhibition at 10 µM (NCI-H522) was 76% and the “Growth Percent” value (NCI-H522) was 24.81%. The “Growth Percent” value (LOX IMVI) was 64.51%, the inhibition at 10 µM (LOX IMVI) was 36% and the inhibition at 10 µM (M14) was 69%. The “Growth Percent” value (M14) was 31.87%, the “Growth Percent” value (MALME-3M) was 82.56% and the inhibition at 10 µM (MALME-3M) was 18%. The inhibition at 10 µM (MDA-MB-435) was 29%, the “Growth Percent” value (MDA-MB-435) was 71.95% and the inhibition at 10 µM (SK-MEL-28) was 29%. The “Growth Percent” value (SK-MEL-28) was 71.43%, the inhibition at 10 µM (SK-MEL-2) was 38% and the “Growth Percent” value (SK-MEL-2) was 62.13%. For the same compound, the inhibition at 10 µM (SK-MEL-5) was 45%, the “Growth Percent” value (SK-MEL-5) was 55.66% and the inhibition at 10 µM (UACC-257) was 43%. For the same compound, the “Growth Percent” value (UACC-257) was 57.07%, the inhibition at 10 µM (UACC-62) was 35% and the “Growth Percent” value (UACC-62) was 65.57%. It also gave a melting point of 195 to 197 °C.
With `COc1ccc(-c2ccc(NC(=O)Nc3cccc(C(F)(F)F)c3)c(C)n2)cc1OC` [Compound 8i, 1-(6-(3,4-Dimethoxyphenyl)-2-methylpyridin-3-yl)-3-(3-(trifluoromethyl)phenyl) Urea] the “Growth Percent” value (CCRF-CEM) was 50.94%, the inhibition at 10 µM (CCRF-CEM) was 50% and the “Growth Percent” value (HL-60(TB)) was 61.08%. For the same compound, the inhibition at 10 µM (HL-60(TB)) was 39%, the inhibition at 10 µM (K-562) was 69% and the “Growth Percent” value (K-562) was 31.93%. For the same compound, the inhibition at 10 µM (MOLT-4) was 61%, the “Growth Percent” value (MOLT-4) was 39.58% and the inhibition at 10 µM (RPMI-8226) was 66%. The “Growth Percent” value (RPMI-8226) was 34.61%, the “Growth Percent” value (SR) was 51.13% and the inhibition at 10 µM (SR) was 49%. The “Growth Percent” value (A549/ATCC) was 60.26%, the inhibition at 10 µM (A549/ATCC) was 40% and the “Growth Percent” value (EKVX) was 66.90%. The inhibition at 10 µM (EKVX) was 34%, the “Growth Percent” value (HOP-62) was 92.32% and the inhibition at 10 µM (HOP-62) was < 10%. The “Growth Percent” value (HOP-92) was 55.33%, the inhibition at 10 µM (HOP-92) was 45% and the inhibition at 10 µM (NCI-H226) was 28%. For the same compound, the “Growth Percent” value (NCI-H226) was 72.63%, the inhibition at 10 µM (NCI-H23) was 29% and the “Growth Percent” value (NCI-H23) was 71.94%. For the same compound, the “Growth Percent” value (NCI-H322M) was 92.59%, the inhibition at 10 µM (NCI-H322M) was < 10% and the inhibition at 10 µM (NCI-H460) was 39%. For the same compound, the “Growth Percent” value (NCI-H460) was 61.77%, the inhibition at 10 µM (NCI-H522) was 60% and the “Growth Percent” value (NCI-H522) was 40.25%. For the same compound, the “Growth Percent” value (LOX IMVI) was 70.96%, the inhibition at 10 µM (LOX IMVI) was 30% and the inhibition at 10 µM (M14) was 69%. For the same compound, the “Growth Percent” value (M14) was 31.21%, the “Growth Percent” value (MALME-3M) was 95.26% and the inhibition at 10 µM (MALME-3M) was < 10%. The inhibition at 10 µM (MDA-MB-435) was 27%, the “Growth Percent” value (MDA-MB-435) was 73.17% and the inhibition at 10 µM (SK-MEL-28) was 25%. The “Growth Percent” value (SK-MEL-28) was 75.52%, the inhibition at 10 µM (SK-MEL-2) was 27% and the “Growth Percent” value (SK-MEL-2) was 73.78%. For the same compound, the inhibition at 10 µM (SK-MEL-5) was 42%, the “Growth Percent” value (SK-MEL-5) was 58.49% and the inhibition at 10 µM (UACC-257) was 19%. The “Growth Percent” value (UACC-257) was 81.62%, the inhibition at 10 µM (UACC-62) was 19% and the “Growth Percent” value (UACC-62) was 81.66%. For the same compound, the melting point was 235 to 237 °C.
